The values that follow come from EP2468270A1, “(R)-2-(3-fluoro-4-phenylphenyl)propionic acid for use in the treatment of skin diseases” (GALENpharma GmbH, priority 2010, dated 2012).

In series [1] the test system is CGRP (Calcitonin Gene-Related Peptide). Conditions: isolated rat skin; Averbeck et al. 2003; cited from earlier work.
For the next series, the system named is PGE2 (prostaglandin E2). Kind of series: in vitro whole blood culture test system, zymosan activation: PGE2 formation. It is filed as cell-based. Conditions: human whole blood from 3 donors, 2 hours pre-incubation with 0.39, 1.56, 6.25, 25 and 100 µg tarenflurbil/ml, then zymosan. How it is done: (§1) In an in vitro whole blood culture test system with human whole blood from 3 donors in each case, pre-incubation was carried out for 2 hours with 0.39, 1.56, 6.25, 25 and 100 µg tarenflurbil/ml whole blood before activation with zymosan (agent for producing sterile inflammations) took place. In total the following 37 parameters were measured which allow a broad overview of the reaction of the leucocytes under inflammatory conditions and thus also of the effects of tarenflurbil in such an environment: • 1. Amphiregulin • 2. Brain-derived neurotrophic factor (BDNF) • 3. Interleukin-1 alpha (IL-1α) • 4. IL-1β • 5. IL-1 receptor antagonist (IL-1Ra) • 6. IL-2 • 7. IL-3 • 8. IL-4 • 9. IL-5 • 10. IL-6 • 11. IL-7 • 12. IL-8 • 13. IL-10 • 14. IL-12, p40 subunit (IL-12p40) • 15. IL-12p70 • 16. IL-15 • 17. IL-17 • 18. IL-18 • 19. IL-23 • 20. Epiregulin • 21. Eotaxin (Eot.) • 22. Factor VII (F. VII) • 23. Granulocyte-monocytes colony stimulating factor (GM-CSF) • 24. Interferon gamma (IFNγ) • 25. Intercellular adhesion molecule-1 (ICAM-1) • 26. Monocyte chemoattractand protein-1 (MCP-1) • 27. Migration inhibitory protein-1 alpha (MIP-1α) • 28. MIP-1ß • 29. Matrix-metalloproteinase-2 (MMP-2) • 30. MMP-3 • 31. MMP-9 • 32. Oncostatin M (OSM) • 33. Stem-cell factor (SCF) • 34. […] (TGFα) • 35. Tumor necrosis factor alpha (TNFα) • 36. TNFß • 37. Vascular endothelial growth factor (VEGF)

The subject of the next series is LT-C4/E4/D4. Kind of series: in vitro whole blood culture test system, zymosan activation: leukotriene synthesis. Format: cell-based. The conditions noted are these: human whole blood, in allergy sufferers (Donor B), 0.39-100 µg tarenflurbil/ml, Figure 1.
Series [2] has as its system TGFß (transforming growth factor ß). Kind of series: in vitro whole blood culture test system, zymosan activation: TGFß release. It is filed as cell-based. The conditions noted are these: human whole blood from 3 donors, 0.39-100 µg tarenflurbil/ml. The method, then:
as §1

For series [3], the system named is BDNF (brain-derived neurotrophic factor). Briefly: in vitro whole blood culture test system, zymosan activation: BDNF release. Format: cell-based. The conditions noted are these: human whole blood from 3 donors, 0.39-100 µg tarenflurbil/ml.
Experimental: In an in vitro whole blood culture test system with human whole blood from 3 donors in each case, pre-incubation was carried out for 2 hours with 0.39, 1.56, 6.25, 25 and 100 µg tarenflurbil/ml whole blood before activation with zymosan (agent for producing sterile inflammations) took place. In total the following 37 parameters were measured which allow a broad overview of the reaction of the leucocytes under inflammatory conditions and thus also of the effects of tarenflurbil in such an environment: • 1. […] Brain-derived neurotrophic factor (BDNF) • 3.
The test system of a further series is UV erythema (sunburn). Kind of series: UV erythema test, twice the minimum erythema dose (Example 2). It is filed as in vivo, human. Conditions: four test subjects, skin of the back, topical spray 0.1, 0.25, 1 and 4% (w/w), visual score and spectroscopic colour measurement, 0-48 hours. How it is done:
The clinical-pharmacological studies of the following Examples 2 to 4 were carried out on healthy adults as model for non-immunological inflammation. In a preliminary test on the skin of the back involving a group of four test subjects, the "minimum erythema dose" following irradiation with a standardized daylight irradiation apparatus ([…]) was established. In the main test 8 areas of the skin of the back of each subject were irradiated with twice the "minimum erythema dose" and then treated with tarenflurbil spray with 0.1, 0.25, 1 and 4% tarenflurbil (w/w) as well as the associated placebo formulations and the comparison preparations (triamcinolone acetonide 0.2% (w/w); mometasone furoate solution 0.1% (w/w)). […] The effect of the test preparation with the highest tarenflurbil concentration was much more marked than with the comparison solutions triamcinolone acetonide 0.2% (w/w) or mometasone furoate 0.1% (w/w).

For series [4] the following is noted: in mice; Leipold et al., Chirality 2004; cited from earlier work.
The conditions of series [5]: in humans; Geisslinger et al., J Clin Pharmacol. 1996; cited from earlier work.
Another series concerns isolated rat skin. The conditions noted are these: Pethö et al. 2001, the authors attributed the effect to S-flurbiprofen impurity; cited from earlier work.
A further series relates to Alzheimer's disease. The conditions noted are these: extensive clinical Phase III studies; WO 2005/065069, Imbimbo 2009; cited from earlier work.

Experimental for LT-C4/E4/D4: In an in vitro whole blood culture test system with human whole blood from 3 donors in each case, pre-incubation was carried out for 2 hours with 0.39, 1.56, 6.25, 25 and 100 µg tarenflurbil/ml whole blood before activation with zymosan (agent for producing sterile inflammations) took place. […] A group determination of LT-C4/E4/D4 was carried out.

In the case of `C[C@H](C(=O)O)c1ccc(-c2ccccc2)c(F)c1` [S-flurbiprofen], the “inhibition of the release of CGRP” value in series [1] is given as “effective”.
`C[C@@H](C(=O)O)c1ccc(-c2ccccc2)c(F)c1` [tarenflurbil, (R)-2-(3-fluoro-4-phenylphenyl)propionic acid]: the “PGE2 (prostaglandin E2) formation” value in the series on PGE2 (prostaglandin E2) was “dose-dependent reduction”. In the series on LT-C4/E4/D4, the “leukotriene synthesis (LT-C4/E4/D4)” value is reported as “dose-dependent reduction”. In addition, in series [2], the “TGFß (transforming growth factor ß) release” value is given as “dose-dependent reduction”. In addition, the “BDNF (brain-derived neurotrophic factor) release” value in series [3] is reported as “dose-dependent reduction”. Moreover, the “degree of erythema (UV erythema)” value with UV erythema (sunburn) is “dose-dependent reduction”. In addition, the “bioinversion into S-flurbiprofen” value in [4] is “considerable bioinversion”. For the same compound, the “conversion to S-flurbiprofen” value in series [5] is “not to be converted to S-flurbiprofen”. Further, the “effect on bradykinin-induced nociceptor sensitization to heat” value in the series on isolated rat skin is given as “effective”. In series [1], the “inhibition of the release of CGRP” value was “ineffective”. Moreover, the “efficacy against Alzheimer's disease” value in the series with Alzheimer's disease is reported as “ineffective”.
